Consider 19 compounds from US20240365736A1, “COMPOSITIONS AND METHODS FOR TARGETED DEGRADATION OF PROTEINS IN A PLANT CELL” (Oerth Bio LLC, priority 2021, published 2024).

For the test, the system named is Matricaria recutita, Diplotaxis tenuifolia, Agrostis spp., Poa annua, or Arabidopsis thaliana. In words: Plant phenotyping assay (herbicidal phenotypes, 96-well plates). Further: key: '+++' is highly active; '++' is moderately active; '+' is weakly active; '−' is inactive. The format is in vivo. The following applies: visual score of herbicidal phenotypes after seven days; 238, 475, 950, and 1900 g ai/ha (50-400 uM). As for the experimental part:
Seeds of Matricaria recutita, Diplotaxis tenuifolia, Agrostis spp., Poa annua, or Arabidopsis thaliana were sown into 96-well plates containing 200 μl of growth media [0.5× Murashige and Skoog (MS) basal media (Sigma-Aldrich), 2.5 mM 2-(N-morpholino) ethanesulfonic acid (MES—Sigma-Aldrich), 0.7 g/L Phytagar (Invitrogen); pH 5.7]. Three to five seeds were distributed per well. Plates were placed under fifteen hours of light at 23° C., 65% humidity in a controlled environment growth chamber. After approximately three days, test compounds and controls were mixed with acetone and emulsified with an equal volume of 3% methyl ester of rapeseed oil (Mero), and applied to plants at concentrations of 238, 475, 950, and 1900 g ai/ha (50-400 uM).

In the case of `CCO/N=C(\CC)C1=C(O)CC(c2ccc(OC3CCN(CCOCCOCCOCCN4CCN(c5ccc6c(c5)C(=O)N(C5CCC(=O)NC5=O)C6=O)CC4)CC3)cc2)CC1=O` (stereo not shown) [Compound 5-C, (E)-2-(2,6-Dioxopiperidin-3-yl)-5-(4-(2-(2-(2-(2-(4-((4′-(1-(ethoxyimino)propyl)-5′-hydroxy-3′-oxo-1′,2′,3′,6′-tetrahydro-[1,1′-biphenyl]-4-yl)oxy)piperidin-1-yl)ethoxy)ethoxy)ethoxy)ethyl)piperazin-1-yl)isoindoline-1,3-dione], the “Plant Activity” value was “+”.

Take `COc1cnc(OC)n2nc(NS(=O)(=O)c3c(OCCOCCOCCN4CCC(CCCN5CCN(c6ccc7c(c6)C(=O)N(C6CCC(=O)NC6=O)C7=O)CC5)CC4)cccc3C(F)(F)F)nc12` (stereo not shown) [Compound 4-J, N-(5,8-Dimethoxy-[1,2,4]triazolo[1,5-c]pyrimidin-2-yl)-2-(2-(2-(2-(4-(3-(4-(2-(2,6-dioxopiperidin-3-yl)-1,3-dioxoisoindolin-5-yl)piperazin-1-yl)propyl)piperidin-1-yl)ethoxy)ethoxy)ethoxy)-6-(trifluoromethyl)benzenesulfonamide]: the “Plant Activity” value is listed as “−”.

Turning to `COc1cnc(OC)n2nc(NS(=O)(=O)c3c(OCCOCCOCCOCCCN4CCN(c5ccc6c(c5)C(=O)N(C5CCC(=O)NC5=O)C6=O)CC4)cccc3C(F)(F)F)nc12` (stereo not shown) [Compound 4-Q, N-(5,8-Dimethoxy-[1,2,4]triazolo[1,5-c]pyrimidin-2-yl)-2-(2-(2-(2-(3-(4-(2-(2,6-dioxopiperidin-3-yl)-1,3-dioxoisoindolin-5-yl)piperazin-1-yl)propoxy)ethoxy)ethoxy)ethoxy)-6-(trifluoromethyl)benzenesulfonamide], the “Plant Activity” value is “++”.

On to `COc1cnc(OC)n2nc(NS(=O)(=O)c3c(OCCOCCOCCOCCOCCNC(=O)COc4cccc5c4C(=O)N(C4CCC(=O)NC4=O)C5=O)cccc3C(F)(F)F)nc12` (stereo not shown) [Compound 4-H, N-(14-(2-(N-(5,8-Dimethoxy-[1,2,4]triazolo[1,5-c]pyrimidin-2-yl)sulfamoyl)-3-(trifluoromethyl)phenoxy)-3,6,9,12-tetraoxatetradecyl)-2-((2-(2,6-dioxopiperidin-3-yl)-1,3-dioxoisoindolin-4-yl)oxy)acetamide], for which the “Plant Activity” value was “+++”.

Regarding `COc1cnc(OC)n2nc(NS(=O)(=O)c3c(OCCOCCN4CCC(CCCN5CCN(c6ccc7c(c6)C(=O)N(C6CCC(=O)NC6=O)C7=O)CC5)CC4)cccc3C(F)(F)F)nc12` (stereo not shown) [Compound 4-K, N-(5,8-Dimethoxy-[1,2,4]triazolo[1,5-c]pyrimidin-2-yl)-2-(2-(2-(4-(3-(4-(2-(2,6-dioxopiperidin-3-yl)-1,3-dioxoisoindolin-5-yl)piperazin-1-yl)propyl)piperidin-1-yl)ethoxy)ethoxy)-6-(trifluoromethyl)benzenesulfonamide], the “Plant Activity” value was “+”.

As to `COc1cnc(OC)n2nc(NS(=O)(=O)c3c(OCCOCCOCCOCCOc4ccc5c(c4)C(=O)N(C4CCC(=O)NC4=O)C5=O)cccc3C(F)(F)F)nc12` (stereo not shown) [Compound 4-D, N-(5,8-Dimethoxy-[1,2,4]triazolo[1,5-c]pyrimidin-2-yl)-2-(2-(2-(2-(2-((2-(2,6-dioxopiperidin-3-yl)-1,3-dioxoisoindolin-5-yl)oxy)ethoxy)ethoxy)ethoxy)ethoxy)-6-(trifluoromethyl)benzenesulfonamide], the “Plant Activity” value is “+++”.

Turning to `O=C1CCC(N2C(=O)c3ccc(N4CCN(CCOCCOCCOCCN5CCC(Oc6cccc(C(=O)C7C(=O)CCCC7=O)c6Cl)CC5)CC4)cc3C2=O)C(=O)N1` (stereo not shown) [Compound 2-A, 5-[4-[2-[2-[2-[2-[4-[2-Chloro-3-(2,6-dioxocyclohexanecarbonyl)phenoxy]-1-piperidyl]ethoxy]ethoxy]ethoxy]ethyl]piperazin-1-yl]-2-(2,6-dioxo-3-piperidyl)isoindoline-1,3-dione], the “Plant Activity” value is recorded as “+”.

Regarding `COc1cnc(OC)n2nc(NS(=O)(=O)c3c(OC4CCN(CCOCCOCCN5CCN(c6ccc7c(c6)C(=O)N(C6CCC(=O)NC6=O)C7=O)CC5)CC4)cccc3C(F)(F)F)nc12` (stereo not shown) [Compound 4-I, N-(5,8-Dimethoxy-[1,2,4]triazolo[1,5-c]pyrimidin-2-yl)-2-((1-(2-(2-(2-(4-(2-(2,6-dioxopiperidin-3-yl)-1,3-dioxoisoindolin-5-yl)piperazin-1-yl)ethoxy)ethoxy)ethyl)piperidin-4-yl)oxy)-6-(trifluoromethyl)benzenesulfonamide], the “Plant Activity” value is “+”.

`CCO/N=C(\CC)C1=C(O)CC(c2ccc(OCCOCCN3CCC(CCCN4CCN(c5ccc6c(c5)C(=O)N(C5CCC(=O)NC5=O)C6=O)CC4)CC3)cc2)CC1=O` (stereo not shown) [Compound 5-D, (E)-2-(2,6-Dioxopiperidin-3-yl)-5-(4-(3-(1-(2-(2-((4′-(1-(ethoxyimino)propyl)-5′-hydroxy-3′-oxo-1′,2′,3′,6′-tetrahydro-[1,1′-biphenyl]-4-yl)oxy)ethoxy)ethyl)piperidin-4-yl)propyl)piperazin-1-yl)isoindoline-1,3-dione]: the “Plant Activity” value is “+”.

As for `COc1cnc(OC)n2nc(NS(=O)(=O)c3c(OCCOCCOCCOCCOCCOCCOc4cccc5c4C(=O)N(C4CCC(=O)NC4=O)C5=O)cccc3C(F)(F)F)nc12` (stereo not shown) [Compound 4-E, N-(5,8-Dimethoxy-[1,2,4]triazolo[1,5-c]pyrimidin-2-yl)-2-((17-((2-(2,6-dioxopiperidin-3-yl)-1,3-dioxoisoindolin-4-yl)oxy)-3,6,9,12,15-pentaoxaheptadecyl)oxy)-6-(trifluoromethyl)benzenesulfonamide], the “Plant Activity” value is on record as “++”.

Regarding `CCO/N=C(\CC)C1=C(O)CC(c2ccc(OCCOCCOCCN3CCN(c4ccc5c(c4)C(=O)N(C4CCC(=O)NC4=O)C5=O)CC3)cc2)CC1=O` (stereo not shown) [Compound 5-B, (E)-2-(2,6-Dioxopiperidin-3-yl)-5-(4-(2-(2-(2-((4′-(1-(ethoxyimino)propyl)-5′-hydroxy-3′-oxo-1′,2′,3′,6′-tetrahydro-[1,1′-biphenyl]-4-yl)oxy)ethoxy)ethoxy)ethyl)piperazin-1-yl)isoindoline-1,3-dione], the “Plant Activity” value is given as “+”.

`O=C(COc1ccc(Oc2nc3ccc(F)cc3s2)cc1)NCCCOCCOCCOCCOc1ccc2c(c1)C(=O)N(C1CCC(=O)NC1=O)C2=O` (stereo not shown) [Compound 8-B, N-(3-(2-(2-(2-((2-(2,6-Dioxopiperidin-3-yl)-1,3-dioxoisoindolin-5-yl)oxy)ethoxy)ethoxy)ethoxy)propyl)-2-(4-((6-fluorobenzo[d]thiazol-2-yl)oxy)phenoxy)acetamide]: the “Plant Activity” value is listed as “+”.

As for `COc1cnc(OC)n2nc(NS(=O)(=O)c3c(OCCCC4CCN(CCOCCOc5ccc6c(c5)C(=O)N(C5CCC(=O)NC5=O)C6=O)CC4)cccc3C(F)(F)F)nc12` (stereo not shown) [Compound 4-M, N-(5,8-Dimethoxy-[1,2,4]triazolo[1,5-c]pyrimidin-2-yl)-2-(3-(1-(2-(2-((2-(2,6-dioxopiperidin-3-yl)-1,3-dioxoisoindolin-5-yl)oxy)ethoxy)ethyl)piperidin-4-yl)propoxy)-6-(trifluoromethyl)benzenesulfonamide], the “Plant Activity” value is on record as “+”.

In the case of `CCOC(=O)[C@@H](C)Oc1ccc(Oc2ccc(OCCOCCOCCN3CCN(c4ccc5c(c4)C(=O)N(C4CCC(=O)NC4=O)C5=O)CC3)cn2)cc1` (stereo partly drawn) [Compound 6-A, Ethyl (2R)-2-(4-((5-(2-(2-(2-(4-(2-(2,6-dioxopiperidin-3-yl)-1,3-dioxoisoindolin-5-yl)piperazin-1-yl)ethoxy)ethoxy)ethoxy)pyridin-2-yl)oxy)phenoxy)propanoate], the “Plant Activity” value is on record as “+”.

Turning to `COc1cnc(OC)n2nc(NS(=O)(=O)c3c(OCCN4CCC(CCCN5CCN(c6ccc7c(c6)C(=O)N(C6CCC(=O)NC6=O)C7=O)CC5)CC4)cccc3C(F)(F)F)nc12` (stereo not shown) [Compound 4-L, N-(5,8-Dimethoxy-[1,2,4]triazolo[1,5-c]pyrimidin-2-yl)-2-(2-(4-(3-(4-(2-(2,6-dioxopiperidin-3-yl)-1,3-dioxoisoindolin-5-yl)piperazin-1-yl)propyl)piperidin-1-yl)ethoxy)-6-(trifluoromethyl)benzenesulfonamide], the “Plant Activity” value is given as “−”.

For the compound `O=C(COc1ccc(Oc2cncc(C(F)(F)F)c2)cc1)NCCCOCCOCCOCCOCCOCCOc1ccc2c(c1)C(=O)N(C1CCC(=O)NC1=O)C2=O` (stereo not shown) [Compound 7-C, N-(1-((2-(2,6-dioxopiperidin-3-yl)-1,3-dioxoisoindolin-5-yl)oxy)-3,6,9,12,15-pentaoxaoctadecan-18-yl)-2-(4-((5-(trifluoromethyl)pyridin-3-yl)oxy)phenoxy)acetamide], the “Plant Activity” value is “−”.

With `O=C(COc1ccc(Oc2nc3ccc(F)cc3s2)cc1)NCCCOCCOCCOc1ccc2c(c1)C(=O)N(C1CCC(=O)NC1=O)C2=O` (stereo not shown) [Compound 8-A, N-(3-(2-(2-((2-(2,6-Dioxopiperidin-3-yl)-1,3-dioxoisoindolin-5-yl)oxy)ethoxy)ethoxy)propyl)-2-(4-((6-fluorobenzo[d]thiazol-2-yl)oxy)phenoxy)acetamide], the “Plant Activity” value is recorded as “+”.

Regarding `CCOC(=O)[C@@H](C)Oc1ccc(Oc2ccc(OCCOCCOCCOc3ccc4c(c3)C(=O)N(C3CCC(=O)NC3=O)C4=O)cn2)cc1` (stereo partly drawn) [Compound 6, Ethyl (2R)-2-(4-((5-(2-(2-(2-((2-(2,6-dioxopiperidin-3-yl)-1,3-dioxoisoindolin-5-yl)oxy)ethoxy)ethoxy)ethoxy)pyridin-2-yl)oxy)phenoxy)propanoate], the “Plant Activity” value was “+”.

Regarding `COc1cnc(OC)n2nc(NS(=O)(=O)c3c(OCCOCCOCCOCCNC(=O)COc4cccc5c4C(=O)N(C4CCC(=O)NC4=O)C5=O)cccc3C(F)(F)F)nc12` (stereo not shown) [Compound 4-G, N-(2-(2-(2-(2-(2-(N-(5,8-Dimethoxy-[1,2,4]triazolo[1,5-c]pyrimidin-2-yl)sulfamoyl)-3-(trifluoromethyl)phenoxy)ethoxy)ethoxy)ethoxy)ethyl)-2-((2-(2,6-dioxopiperidin-3-yl)-1,3-dioxoisoindolin-4-yl)oxy)acetamide], the “Plant Activity” value is reported as “++”.
